Numbers after ± are expanded uncertainties.
Test: mn = molality of the nth substance listed, in mol/kg
Conditions: Liquid; for viscosity: Falling or rolling sphere viscometry; for mass density: Vibrating tube method

S [hydrogen sulfide] + O=S1(=O)CCCC1
Conditions	mass density [kg/m3]	viscosity [mPa·s]
303.15 K, 86.7 kPa, m1 = 0.389	1257 ± 1	9.33 ± 0.24
303.15 K, 137.1 kPa, m1 = 0.623	1255 ± 1	8.58 ± 0.23
303.15 K, 193.6 kPa, m1 = 0.915	1253 ± 1	7.76 ± 0.21
303.15 K, 230.1 kPa, m1 = 1.128	1251 ± 1	6.88 ± 0.2
303.15 K, 304.1 kPa, m1 = 1.435	1248 ± 1	6.31 ± 0.19
303.15 K, 364.8 kPa, m1 = 1.764	1246 ± 1	5.55 ± 0.17
303.15 K, 401.1 kPa, m1 = 2.032	1244 ± 1	5.09 ± 0.16
303.15 K, 503.2 kPa, m1 = 2.605	1242 ± 1	4.44 ± 0.13
303.15 K, 616.7 kPa, m1 = 3.291	1238 ± 1	3.7 ± 0.1
303.15 K, 738.4 kPa, m1 = 4.17	1237 ± 1	2.95 ± 0.07
303.15 K, 889.7 kPa, m1 = 5.327	1233 ± 1	2.08 ± 0.05
303.15 K, 1040.5 kPa, m1 = 6.929	1230 ± 2	1.47 ± 0.03
313.15 K, 160.8 kPa, m1 = 0.626	1246 ± 1	6.7 ± 0.17
313.15 K, 227 kPa, m1 = 0.884	1242 ± 1	6.03 ± 0.16
313.15 K, 273.9 kPa, m1 = 1.021	1242 ± 1	5.5 ± 0.15
313.15 K, 362.7 kPa, m1 = 1.408	1238 ± 1	5.07 ± 0.13
313.15 K, 419.7 kPa, m1 = 1.723	1236 ± 1	4.54 ± 0.12
313.15 K, 481.3 kPa, m1 = 2.009	1234 ± 1	4.02 ± 0.11
313.15 K, 586.5 kPa, m1 = 2.375	1231 ± 1	3.74 ± 0.09
313.15 K, 718.4 kPa, m1 = 3.078	1228 ± 1	3.07 ± 0.07
313.15 K, 859.9 kPa, m1 = 3.931	1225 ± 1	2.44 ± 0.05
313.15 K, 1035.5 kPa, m1 = 5.164	1223 ± 1	1.8 ± 0.03
323.15 K, 76.1 kPa, m1 = 0.222	1243 ± 1	6.09 ± 0.15
323.15 K, 118.7 kPa, m1 = 0.378	1242 ± 1	5.55 ± 0.15
323.15 K, 190.1 kPa, m1 = 0.579	1239 ± 1	5.16 ± 0.14
323.15 K, 267.2 kPa, m1 = 0.823	1236 ± 1	4.49 ± 0.13
323.15 K, 317.2 kPa, m1 = 1.009	1234 ± 1	4.35 ± 0.12
323.15 K, 430.1 kPa, m1 = 1.389	1229 ± 1	3.74 ± 0.1
323.15 K, 490.4 kPa, m1 = 1.704	1226 ± 1	3.41 ± 0.09
323.15 K, 565.2 kPa, m1 = 1.985	1223 ± 1	3.09 ± 0.07
323.15 K, 688.7 kPa, m1 = 2.348	1220 ± 1	2.86 ± 0.06
323.15 K, 843.7 kPa, m1 = 3.097	1216 ± 1	2.35 ± 0.04
323.15 K, 1009.9 kPa, m1 = 3.97	1215 ± 1	1.89 ± 0.03
333.15 K, 88.3 kPa, m1 = 0.218	1233 ± 1	4.78 ± 0.13
333.15 K, 139.2 kPa, m1 = 0.372	1231 ± 1	4.65 ± 0.12
333.15 K, 219.9 kPa, m1 = 0.571	1228 ± 1	4.29 ± 0.11
333.15 K, 314.1 kPa, m1 = 0.811	1225 ± 1	3.86 ± 0.11
333.15 K, 370.5 kPa, m1 = 0.995	1223 ± 1	3.58 ± 0.1
333.15 K, 505.9 kPa, m1 = 1.368	1219 ± 1	3.17 ± 0.08
333.15 K, 576.7 kPa, m1 = 1.681	1215 ± 1	2.8 ± 0.07
333.15 K, 664 kPa, m1 = 1.959	1212 ± 1	2.55 ± 0.06
333.15 K, 800 kPa, m1 = 2.462	1208 ± 1	2.29 ± 0.05
343.15 K, 96 kPa, m1 = 0.205	1223 ± 1	3.95 ± 0.11
343.15 K, 159.7 kPa, m1 = 0.347	1220 ± 1	3.74 ± 0.1
343.15 K, 253.3 kPa, m1 = 0.563	1218 ± 1	3.5 ± 0.1
343.15 K, 368.1 kPa, m1 = 0.797	1215 ± 1	3.13 ± 0.08
343.15 K, 428.2 kPa, m1 = 0.981	1214 ± 1	2.99 ± 0.07
343.15 K, 590.6 kPa, m1 = 1.347	1211 ± 1	2.65 ± 0.06
343.15 K, 678.9 kPa, m1 = 1.654	1204 ± 1	2.34 ± 0.06
343.15 K, 782.1 kPa, m1 = 1.927	1202 ± 1	2.18 ± 0.05
343.15 K, 914 kPa, m1 = 2.221	1200 ± 1	2.01 ± 0.04
343.15 K, 1119.8 kPa, m1 = 2.876	1196 ± 1	1.65 ± 0.03
353.15 K, 116.1 kPa, m1 = 0.202	1216 ± 1	3.24 ± 0.08
353.15 K, 179.9 kPa, m1 = 0.319	1214 ± 1	3.11 ± 0.08
353.15 K, 288.8 kPa, m1 = 0.546	1210 ± 1	2.69 ± 0.07
353.15 K, 427.9 kPa, m1 = 0.802	1209 ± 1	2.53 ± 0.07
353.15 K, 494.2 kPa, m1 = 0.965	1206 ± 1	2.46 ± 0.06
353.15 K, 683.1 kPa, m1 = 1.324	1199 ± 1	2.2 ± 0.05
353.15 K, 795.9 kPa, m1 = 1.624	1195 ± 1	1.98 ± 0.05
353.15 K, 911.1 kPa, m1 = 1.894	1193 ± 1	1.81 ± 0.04
363.15 K, 131.7 kPa, m1 = 0.195	1208 ± 1	2.71 ± 0.07
363.15 K, 201.9 kPa, m1 = 0.304	1206 ± 1	2.61 ± 0.06
363.15 K, 327.1 kPa, m1 = 0.504	1202 ± 1	2.46 ± 0.06
363.15 K, 494.7 kPa, m1 = 0.767	1199 ± 1	2.21 ± 0.05
363.15 K, 565.7 kPa, m1 = 0.912	1196 ± 1	2.05 ± 0.05
363.15 K, 784.2 kPa, m1 = 1.3	1190 ± 1	1.74 ± 0.04
363.15 K, 928.7 kPa, m1 = 1.591	1185 ± 1	1.5 ± 0.04
363.15 K, 1052.3 kPa, m1 = 1.86	1184 ± 1	1.37 ± 0.03
